The test deals with c-kit mutant D816V (Homo sapiens (Human), UniProt P10721, D816V/DEL694-753). Description: c-Kit mutant D816V biochemical assay (AlphaScreen kinase activity). In outline:
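Recombinant His-tagged c-Kit D816V kinase domain (residues 551-934, insert 694-753 deleted, E. coli-expressed) phosphorylating 30 nM biotin-(E4Y)10 with 10 μM ATP, HEPES pH 7.2, Mg/Mn, 5% DMSO; 30 min, room temperature. Phosphorylation detected by AlphaScreen (streptavidin donor/PY30 acceptor beads); IC50 from 8-point 1:3 series.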
Chain of c-kit mutant D816V (P10721 other isoform, or with tags, fused parts or gaps D816V/del 694-753): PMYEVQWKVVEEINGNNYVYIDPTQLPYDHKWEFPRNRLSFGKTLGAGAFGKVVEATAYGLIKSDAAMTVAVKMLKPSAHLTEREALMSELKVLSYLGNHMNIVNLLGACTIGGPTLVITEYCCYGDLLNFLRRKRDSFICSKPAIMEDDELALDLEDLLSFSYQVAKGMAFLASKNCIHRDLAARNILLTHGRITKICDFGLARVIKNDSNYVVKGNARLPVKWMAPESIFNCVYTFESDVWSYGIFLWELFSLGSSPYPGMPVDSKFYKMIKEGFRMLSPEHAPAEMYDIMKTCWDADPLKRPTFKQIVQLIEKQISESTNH
As for `Cc1cc2c(N3CCC(C)(c4nc(C)c(-c5ccc6c(c5)OCO6)[nH]4)CC3)ncnc2[nH]1` [P-3150, 4-[4-[5-(1,3-benzodioxol-5-yl)-4-methyl-1H-imidazol-2-yl]-4-methyl-1-piperidyl]-6-methyl-7H-pyrrolo[2,3-d]pyrimidine], the IC50 was 0.0001 to 1 µM.
Then `Cc1cc2c(N3CCC(C)(c4nc(C)c(-c5ccc6c(c5)OCCO6)[nH]4)CC3)ncnc2[nH]1` [P-3151, 4-[4-[5-(2,3-dihydro-1,4-benzodioxin-6-yl)-4-methyl-1H-imidazol-2-yl]-4-methyl-1-piperidyl]-6-methyl-7H-pyrrolo[2,3-d]pyrimidine], with 0.0001 to 1 µM; and `Cc1cc2c(N3CCC(C)(c4nc(C)c(-c5ccc6c(c5)OC(F)(F)O6)[nH]4)CC3)ncnc2[nH]1` [P-3152, 4-[4-[5-(2,2-difluoro-1,3-benzodioxol-5-yl)-4-methyl-1H-imidazol-2-yl]-4-methyl-1-piperidyl]-6-methyl-7H-pyrrolo[2,3-d]pyrimidine], with 0.0001 to 1 µM; and `COc1ccc(-c2[nH]c(C3(C)CCN(c4ncnc5[nH]c(-c6cnn(C(F)F)c6)cc45)CC3)nc2C)cc1` [P-3153, 6-[1-(difluoromethyl)pyrazol-4-yl]-4-[4-[5-(4-methoxyphenyl)-4-methyl-1H-imidazol-2-yl]-4-methyl-1-piperidyl]-7H-pyrrolo[2,3-d]pyrimidine], with 0.0001 to 1 µM.
In turn, `COc1ccc(-c2[nH]c(C3(C)CCN(c4ncnc5[nH]c(-c6cnn(C(F)F)c6)cc45)CC3)nc2C)cc1C` [P-3154, 6-[1-(difluoromethyl)pyrazol-4-yl]-4-[4-[5-(4-methoxy-3-methyl-phenyl)-4-methyl-1H-imidazol-2-yl]-4-methyl-1-piperidyl]-7H-pyrrolo[2,3-d]pyrimidine] came in with an IC50 of 0.0001 to 1 µM.
`Cc1nc(C2(C)CCN(c3ncnc4[nH]c(-c5cnn(C(F)F)c5)cc34)CC2)[nH]c1-c1ccc2c(c1)OCO2` [P-3155, 4-[4-[5-(1,3-benzodioxol-5-yl)-4-methyl-1H-imidazol-2-yl]-4-methyl-1-piperidyl]-6-[1-(difluoromethyl)pyrazol-4-yl]-7H-pyrrolo[2,3-d]pyrimidine] registered an IC50 of 0.0001 to 1 µM.
For `COc1ccc(-c2[nH]c(C3(C)CCN(c4ncnc5[nH]c(-c6ccc(OC)nc6)cc45)CC3)nc2C)cc1` [P-3156, 4-[4-[5-(4-methoxyphenyl)-4-methyl-1H-imidazol-2-yl]-4-methyl-1-piperidyl]-6-(6-methoxy-3-pyridyl)-7H-pyrrolo[2,3-d]pyrimidine] the value was 0.0001 to 1 µM; for `COc1ccc(-c2cc3c(N4CCC(C)(c5nc(C)c(-c6ccc(OC)c(C)c6)[nH]5)CC4)ncnc3[nH]2)cn1` [P-3157, 4-[4-[5-(4-methoxy-3-methyl-phenyl)-4-methyl-1H-imidazol-2-yl]-4-methyl-1-piperidyl]-6-(6-methoxy-3-pyridyl)-7H-pyrrolo[2,3-d]pyrimidine], 0.0001 to 1 µM.
Then `COc1ccc(-c2cc3c(N4CCC(C)(c5nc(C)c(-c6ccc7c(c6)OCO7)[nH]5)CC4)ncnc3[nH]2)cn1` [P-3158, 4-[4-[5-(1,3-benzodioxol-5-yl)-4-methyl-1H-imidazol-2-yl]-4-methyl-1-piperidyl]-6-(6-methoxy-3-pyridyl)-7H-pyrrolo[2,3-d]pyrimidine], with 0.0001 to 1 µM; and `Cc1nc(C2(C)CCN(c3ncnc4[nH]c(-c5ccc(C#N)cc5)cc34)CC2)[nH]c1-c1ccc2c(c1)OCO2` [P-3159, 4-[4-[4-[5-(1,3-benzodioxol-5-yl)-4-methyl-1H-imidazol-2-yl]-4-methyl-1-piperidyl]-7H-pyrrolo[2,3-d]pyrimidin-6-yl]benzonitrile], with 0.0001 to 1 µM; and `CCOc1ccc(-c2[nH]c(C3(C)CCN(c4ncnc5[nH]c(-c6ccc(C#N)cc6)cc45)CC3)nc2C)cc1C` [P-3160, 4-[4-[4-[5-(4-ethoxy-3-methyl-phenyl)-4-methyl-1H-imidazol-2-yl]-4-methyl-1-piperidyl]-7H-pyrrolo[2,3-d]pyrimidin-6-yl]benzonitrile], with 0.0001 to 1 µM.
Then `CCOc1ccc(-c2[nH]c(C3(C)CCN(c4ncnc5[nH]c(-c6ccc(C#N)cc6)cc45)CC3)nc2C)cc1` [P-3161, 4-[4-[4-[5-(4-ethoxyphenyl)-4-methyl-1H-imidazol-2-yl]-4-methyl-1-piperidyl]-7H-pyrrolo[2,3-d]pyrimidin-6-yl]benzonitrile], with 0.0001 to 1 µM.
In turn, `Cc1nc(C2CCN(c3ncnc4[nH]c(-c5ccc(C#N)cc5)cc34)CC2)[nH]c1-c1ccc(C(F)F)cc1` [P-3162, 4-[4-[4-[5-[4-(difluoromethyl)phenyl]-4-methyl-1H-imidazol-2-yl]-1-piperidyl]-7H-pyrrolo[2,3-d]pyrimidin-6-yl]benzonitrile] returned an IC50 of 0.0001 to 1 µM.
Compound `COc1ccc(-c2[nH]c(C3(C)CCN(c4ncnc5[nH]c(-c6ccc(C#N)cc6)cc45)CC3)nc2C)cc1F` [P-3163, 4-[4-[4-[5-(3-fluoro-4-methoxy-phenyl)-4-methyl-1H-imidazol-2-yl]-4-methyl-1-piperidyl]-7H-pyrrolo[2,3-d]pyrimidin-6-yl]benzonitrile] registered a half-inhibitory concentration (IC50) of 0.0001 to 1 µM.
For `Cc1nc(C2(C)CCN(c3ncnc4[nH]c(-c5ccc(C#N)cc5)cc34)CC2)[nH]c1-c1ccc(C(F)F)cc1` [P-3164, 4-[4-[4-[5-[4-(difluoromethyl)phenyl]-4-methyl-1H-imidazol-2-yl]-4-methyl-1-piperidyl]-7H-pyrrolo[2,3-d]pyrimidin-6-yl]benzonitrile] the value was 0.0001 to 1 µM; for `Cc1cc2c(N3CCC(C)(c4nc(C)c(-c5ccc(C(F)(F)F)cc5)[nH]4)CC3)ncnc2[nH]1` [P-3165, 6-methyl-4-[4-methyl-4-[4-methyl-5-[4-(trifluoromethyl)phenyl]-1H-imidazol-2-yl]-1-piperidyl]-7H-pyrrolo[2,3-d]pyrimidine], 0.0001 to 1 µM; for `COc1cccc(-c2[nH]c(C3(C)CCN(c4ncnc5[nH]c(C)cc45)CC3)nc2C)c1` [P-3166, 4-[4-[5-(3-methoxyphenyl)-4-methyl-1H-imidazol-2-yl]-4-methyl-1-piperidyl]-6-methyl-7H-pyrrolo[2,3-d]pyrimidine], 0.0001 to 1 µM.
Compound `COc1cccc(-c2[nH]c(C3(C)CCN(c4ncnc5[nH]c(-c6ccc(C#N)cc6)cc45)CC3)nc2C)c1` [P-3167, 4-[4-[4-[5-(3-methoxyphenyl)-4-methyl-1H-imidazol-2-yl]-4-methyl-1-piperidyl]-7H-pyrrolo[2,3-d]pyrimidin-6-yl]benzonitrile] yielded an IC50 of 0.0001 to 1 µM.
Then `COc1cccc(-c2[nH]c(C3(C)CCN(c4ncnc5[nH]c(-c6cnn(C(F)F)c6)cc45)CC3)nc2C)c1` [P-3168, 6-[1-(difluoromethyl)pyrazol-4-yl]-4-[4-[5-(3-methoxyphenyl)-4-methyl-1H-imidazol-2-yl]-4-methyl-1-piperidyl]-7H-pyrrolo[2,3-d]pyrimidine], with 0.0001 to 1 µM.
Compound `COc1cccc(-c2[nH]c(C3(C)CCN(c4ncnc5[nH]c(-c6ccc(OC)nc6)cc45)CC3)nc2C)c1` [P-3169, 4-[4-[5-(3-methoxyphenyl)-4-methyl-1H-imidazol-2-yl]-4-methyl-1-piperidyl]-6-(6-methoxy-3-pyridyl)-7H-pyrrolo[2,3-d]pyrimidine] had an IC50 of 0.0001 to 1 µM.
On to `CCOc1ccc(-c2[nH]c(C3(C)CCN(c4ncnc5[nH]c(-c6cnn(C(F)F)c6)cc45)CC3)nc2C)cc1` [P-3170, 6-[1-(difluoromethyl)pyrazol-4-yl]-4-[4-[5-(4-ethoxyphenyl)-4-methyl-1H-imidazol-2-yl]-4-methyl-1-piperidyl]-7H-pyrrolo[2,3-d]pyrimidine], for which the IC50 fell in the range of 0.0001 to 1 µM.
For `Fc1ccc(-c2cc3c(N4CCC(c5nnc(-c6cccc(OC(F)F)c6)[nH]5)CC4)ncnc3[nH]2)cc1` [P-3204, 4-[4-[5-[3-(difluoromethoxy)phenyl]-4H-1,2,4-triazol-3-yl]-1-piperidyl]-6-(4-fluorophenyl)-7H-pyrrolo[2,3-d]pyrimidine] the value was 0.0001 to 1 µM; for `COc1cc(-c2cc3c(N4CCC(c5nnc(-c6ccc(F)cc6)[nH]5)CC4)ncnc3[nH]2)ccn1` [P-3205, 4-[4-[5-(4-fluorophenyl)-4H-1,2,4-triazol-3-yl]-1-piperidyl]-6-(2-methoxy-4-pyridyl)-7H-pyrrolo[2,3-d]pyrimidine], 1 to 10 µM.

For the origin of these results see patent publication US9771369B2, “Compounds and methods for kinase modulation, and indications therefor” (Plexxikon Inc., priority 2014, dated 2017).
